Source: US10167262B2, “Herbicidal substituted 3-arylpyrazoles” (FMC CORPORATION, priority 2014, dated 2019)

Columns and labels:
Assay type in all cases: in vivo
[1] = system: smartweed (ladysthumb smartweed, Polygonum persicaria); assay: Test E pre-/postemergence greenhouse test, plant response rating 0-100; conditions: Postemergence, scale 0 to 100
[2] = system: waterhemp_RES1, (ALS & Triazine resistant common waterhemp, Amaranthus rudis); assay: Test E postemergence greenhouse test, plant response rating 0-100; conditions: scale 0 to 100
Outline: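 Resistant waterhemp biotypes grown in peat/vermiculite medium and treated postemergence at 2–18 cm height (1- to 4-leaf stage). Kept in greenhouse 14 to 21 days, then visually rated against untreated controls on a 0–100 scale (0 no effect, 100 complete control).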

[3] = system: large (Lg) crabgrass (Digitaria sanguinalis); assay: Test E pre-/postemergence greenhouse test, plant response rating 0-100; conditions: Preemergence, scale 0 to 100
[4] = system: giant foxtail (Setaria faberii); assay: as above; conditions: Preemergence, scale 0 to 100
[5] = system: green foxtail (Setaria viridis); assay: as above; conditions: Preemergence, scale 0 to 100
[6] = system: ragweed (common ragweed, Ambrosia elatior); assay: as above; conditions: Preemergence, scale 0 to 100
Outline: (§1)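 Greenhouse pot assay, two application timings. Pre- to silt loam at planting; post- to 1–4-leaf plants. Visual 0–100 score at 14–21 d.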

[7] = system: surinam grass (Brachiaria decumbens); assay: as above; conditions: Preemergence, scale 0 to 100
Outline: as §1

[8] = system: morningglory (Ipomoea coccinea); assay: as above; conditions: Preemergence, scale 0 to 100

**Q.** C=CCn1cc(C(=O)c2ccccc2)c(-c2cc(Cl)cc(Cl)c2)n1 [Compound 60] was tested. Which “Plant response rating, Smartweed” value ([1]; 31 g ai/ha) did it give?
**A.** Its value is 0.

**Q.** What about the “Plant response rating, Smartweed” value ([1]; 62 g ai/ha) of the same molecule?
**A.** Its value is 0.

**Q.** What about the “Plant response rating, Smartweed” value ([1]; 125 g ai/ha) of the same molecule?
**A.** The value was 0.

**Q.** And the “Plant response rating, Smartweed” value ([1]; 250 g ai/ha)?
**A.** Its value is 0.

**Q.** With COC(OC)(c1ccccc1)c1c[nH]nc1-c1cc(Cl)cc(Cl)c1 [Compound 13, 3-(3,5-dichlorophenyl)-4-(dimethoxyphenylmethyl)-1H-pyrazole] as the molecule, how does the “Plant response rating, Waterhemp_RES1” value ([2]; 125 g ai/ha) read?
**A.** Its value is 90.

**Q.** What about the “Plant response rating, Waterhemp_RES1” value ([2]; 500 g ai/ha) of the same molecule?
**A.** The value was 100.

**Q.** Which results are given for CCOC(OCC)(c1ccccc1)c1c[nH]nc1-c1cc(Cl)cc(Cl)c1 [Compound 14, 3-(3,5-dichlorophenyl)-4-(diethoxyphenylmethyl)-1H-pyrazole]?
**A.** Plant response rating, Waterhemp_RES1 ([2]; 31 g ai/ha): 90; Plant response rating, Waterhemp_RES1 ([2]; 62 g ai/ha): 95; Plant response rating, Waterhemp_RES1 ([2]; 125 g ai/ha): 95; Plant response rating, Waterhemp_RES1 ([2]; 250 g ai/ha): 100; Plant response rating, Waterhemp_RES1 ([2]; 500 g ai/ha): 100

**Q.** What does the source list for Cn1cc(C(=O)c2cccs2)c(-c2cc(Cl)cc(Cl)c2)n1 [Compound 17]?
**A.** Plant response rating, Waterhemp_RES1 ([2]; 31 g ai/ha): 70; Plant response rating, Waterhemp_RES1 ([2]; 62 g ai/ha): 70; Plant response rating, Waterhemp_RES1 ([2]; 250 g ai/ha): 85; Plant response rating, Waterhemp_RES1 ([2]; 500 g ai/ha): 85

**Q.** How did the “Plant response rating, Waterhemp_RES1” value ([2]; 31 g ai/ha) turn out when CCn1cc(C(=O)c2cccs2)c(-c2cc(Cl)cc(Cl)c2)n1 [Compound 18] was run?
**A.** Its value is 60.

**Q.** What about the “Plant response rating, Waterhemp_RES1” value ([2]; 62 g ai/ha) of the same molecule?
**A.** The value was 70.

**Q.** What about the “Plant response rating, Waterhemp_RES1” value ([2]; 125 g ai/ha) of the same molecule?
**A.** Its value is 85.

**Q.** What about the “Plant response rating, Waterhemp_RES1” value ([2]; 250 g ai/ha) of the same molecule?
**A.** The value was 95.

**Q.** And the “Plant response rating, Waterhemp_RES1” value ([2]; 500 g ai/ha)?
**A.** Its value is 95.

**Q.** Which “Plant response rating, Smartweed” value ([1]; 31 g ai/ha) does the source give for Fc1cccc(NN=C(c2ccccc2)c2c[nH]nc2-c2cc(Cl)cc(Cl)c2)c1 [Compound 58] here?
**A.** The value was 0.

**Q.** And the “Plant response rating, Smartweed” value ([1]; 125 g ai/ha)?
**A.** The value was 50.

**Q.** What does the source list for COCC(=O)n1cc(C(=O)c2ccccc2)c(-c2cc(Cl)cc(Cl)c2)n1 [Compound 16, 1-[4-benzoyl-3-(3,5-dichlorophenyl)-1H-pyrazol-1-yl]-2-methoxyethanone]?
**A.** Crabgrass, Large plant response rating ([3]; 31 g ai/ha): 0; Crabgrass, Large plant response rating ([3]; 62 g ai/ha): 0; Crabgrass, Large plant response rating ([3]; 125 g ai/ha): 0; Crabgrass, Large plant response rating ([3]; 250 g ai/ha): 0; Crabgrass, Large plant response rating ([3]; 500 g ai/ha): 0; Foxtail, Giant plant response rating ([4]; 31 g ai/ha): 0; Foxtail, Giant plant response rating ([4]; 62 g ai/ha): 0; Foxtail, Giant plant response rating ([4]; 125 g ai/ha): 0; Foxtail, Giant plant response rating ([4]; 250 g ai/ha): 0; Foxtail, Giant plant response rating ([4]; 500 g ai/ha): 0; Foxtail, Green plant response rating ([5]; 31 g ai/ha): 0; Foxtail, Green plant response rating ([5]; 62 g ai/ha): 0; Foxtail, Green plant response rating ([5]; 125 g ai/ha): 0; Foxtail, Green plant response rating ([5]; 250 g ai/ha): 0; Foxtail, Green plant response rating ([5]; 500 g ai/ha): 0; Ragweed plant response rating ([6]; 31 g ai/ha): 0; Ragweed plant response rating ([6]; 62 g ai/ha): 0; Ragweed plant response rating ([6]; 125 g ai/ha): 85; Ragweed plant response rating ([6]; 250 g ai/ha): 90; Ragweed plant response rating ([6]; 500 g ai/ha): 98; Surinam Grass plant response rating ([7]; 31 g ai/ha): 0; Surinam Grass plant response rating ([7]; 62 g ai/ha): 0; Surinam Grass plant response rating ([7]; 125 g ai/ha): 0; Surinam Grass plant response rating ([7]; 250 g ai/ha): 0; Surinam Grass plant response rating ([7]; 500 g ai/ha): 0; Morningglory plant response rating ([8]; 31 g ai/ha): 0; Morningglory plant response rating ([8]; 62 g ai/ha): 20; Morningglory plant response rating ([8]; 125 g ai/ha): 20; Morningglory plant response rating ([8]; 250 g ai/ha): 0; Morningglory plant response rating ([8]; 500 g ai/ha): 40
